The source of these data is patent publication US10858364B2, “Imidazopyrazine inhibitors of Bruton's tyrosine kinase” (Acerta Pharma B.V., priority 2016, dated 2020).

Data set [1] relates to CYP3A4/5. Put plainly: CYP inhibition, CYP3A4/5. It counts as in vitro ADME.
Data set [2] has as its target BTK wild type (BTK-WT) (Homo sapiens (Human), UniProt Q06187). Description: BTK-WT LanthaScreen, inhibition constants from IC50 over time. It counts as binding. As for the experimental part:
Inhibitory activity on BTK wild type (BTK-WT) and BTK Cys481Ser mutant (BTK-C481S) was measured using the LanthaScreen assay technology from ThermoFisher according to manufacturer's protocol. BTK-WT or BTK-C481 S (Genscript) were mixed and diluted with Eu-anti-GST antibody (Invitrogen) in Kinase buffer (50 mM Hepes pH 7.5+10 mM MgCl2+1 mM EGTA+0.01% Brij-35) to 15 and 6 nM, respectively. Final concentration in the assay for enzyme and antibody are 5 and 2 nM, respectively. Tracer (Kinase Tracer 236, Invitrogen) is diluted in Kinase buffer to 90 nM. Final concentration in the assay is 30 nM. Serial dilutions log 10 from 1 mM to 3.16 nM of test compounds are made in 100% DMSO. The dilutions in DMSO are then diluted 33-fold in Kinase buffer (50 mM Hepes pH 7.5+10 mM MgCl2+1 mM EGTA+0.01% Brij-35). The assay is performed as follows: 5 μL/well of BTK-WT or BTK-C481S enzyme and EU-anti-GST antibody dilution is mixed with 5 μL/well tracer dilution and 5 μL/well of compound dilution in Kinase buffer. Final compound concentration in the assay ranged from 10 μM to 0.316 nM, with 1% DMSO final concentration in assay. Mixture was incubated at room temperature in the dark and at different times of incubation (5 min, 10 min, 20 min, 30 min, 40 min, 60 min, 90 min, 120 min, 180 min and 300 min) the TR-FRET signal was read at 615 nm and 665 nm. The ratio 665/615 was used to calculate values expressed as percentage of the difference in readout (S/N) of the controls with and without Tracer. IC50 values for each timepoint were determined by curve fitting of the experimental results in Dotmatics. […] The kinetics in covalent binding are determined by affinity of the compound to BTK and by the reactivity of the electrophile. Using the data for M27 from the LanthaScreen assay on BTK-WT, the inhibition constants can be calculated for the parent and the metabolite. […] The Ki and kinact parameters were derived from IC50 values over time, according to the method of Krippendorff et al (J Biomol Screen. 2009, 14(8):913-23) with measured Km=102 nM for the tracer used in the assay.
For orientation: Time-resolved FRET reads energy transfer from a long-lived donor to a nearby acceptor.

The target in data set [3] is CYP2B6 (Homo sapiens (Human), UniProt P20813). Description: CYP inhibition, CYP2B6. It is filed as in vitro ADME.
Data set [4] concerns the target ERBB2 (Homo sapiens (Human), UniProt P04626). Put plainly: DiscoveRx Kd dose response, ERBB2. It counts as binding. The method, then: Kinase profiling was performed with M27 was done at DiscoveRx at a single dose of 1 μM on all available kinases (KINOMEscan). The overall kinase selectivity score is in Table 6. […] Kinases inhibited >65% at 1 μM for M27 were followed up with a dose response at DiscoveRx. The M27 had IC50 values <1 μM for almost the same set of kinases with exception of TXK, but with additional inhibition of BRK (PTK6).

Data set [5] has as its target CYP2C8 (Homo sapiens (Human), UniProt P10632). Put plainly: CYP inhibition, CYP2C8. It counts as in vitro ADME.

BTK wild type (BTK-WT), sequence (Q06187 whole entry): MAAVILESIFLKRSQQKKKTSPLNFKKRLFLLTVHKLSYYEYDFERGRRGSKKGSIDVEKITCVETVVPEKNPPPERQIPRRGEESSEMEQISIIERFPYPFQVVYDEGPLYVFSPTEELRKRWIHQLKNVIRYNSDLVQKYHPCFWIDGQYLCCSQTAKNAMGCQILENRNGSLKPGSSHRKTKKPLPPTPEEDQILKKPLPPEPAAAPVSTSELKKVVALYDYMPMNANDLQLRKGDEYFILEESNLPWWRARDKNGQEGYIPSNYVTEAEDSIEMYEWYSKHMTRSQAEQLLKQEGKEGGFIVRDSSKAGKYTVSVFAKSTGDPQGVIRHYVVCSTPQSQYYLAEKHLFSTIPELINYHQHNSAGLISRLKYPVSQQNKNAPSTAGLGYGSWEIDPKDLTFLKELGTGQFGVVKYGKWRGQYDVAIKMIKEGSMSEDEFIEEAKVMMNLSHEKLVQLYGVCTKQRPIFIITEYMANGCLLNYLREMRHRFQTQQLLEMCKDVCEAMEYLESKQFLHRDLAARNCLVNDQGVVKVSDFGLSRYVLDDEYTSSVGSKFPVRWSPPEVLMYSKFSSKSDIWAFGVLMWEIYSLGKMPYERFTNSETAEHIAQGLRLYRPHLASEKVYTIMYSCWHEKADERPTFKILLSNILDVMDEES
CYP2B6, sequence (P20813 whole entry): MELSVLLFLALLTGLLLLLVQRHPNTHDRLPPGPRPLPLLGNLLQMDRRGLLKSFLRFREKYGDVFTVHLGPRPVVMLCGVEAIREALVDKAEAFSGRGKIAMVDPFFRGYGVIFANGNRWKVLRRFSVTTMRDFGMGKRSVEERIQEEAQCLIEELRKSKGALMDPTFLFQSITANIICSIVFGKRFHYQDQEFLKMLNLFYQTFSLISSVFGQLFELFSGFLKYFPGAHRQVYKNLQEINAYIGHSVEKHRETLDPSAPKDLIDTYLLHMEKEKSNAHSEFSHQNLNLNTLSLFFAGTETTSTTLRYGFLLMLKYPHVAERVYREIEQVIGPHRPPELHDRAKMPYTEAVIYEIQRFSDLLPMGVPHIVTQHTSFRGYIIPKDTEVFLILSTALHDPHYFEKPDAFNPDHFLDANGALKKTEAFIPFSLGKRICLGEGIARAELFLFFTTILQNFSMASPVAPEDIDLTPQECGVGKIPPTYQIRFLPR
CYP2C8, sequence (P10632 whole entry): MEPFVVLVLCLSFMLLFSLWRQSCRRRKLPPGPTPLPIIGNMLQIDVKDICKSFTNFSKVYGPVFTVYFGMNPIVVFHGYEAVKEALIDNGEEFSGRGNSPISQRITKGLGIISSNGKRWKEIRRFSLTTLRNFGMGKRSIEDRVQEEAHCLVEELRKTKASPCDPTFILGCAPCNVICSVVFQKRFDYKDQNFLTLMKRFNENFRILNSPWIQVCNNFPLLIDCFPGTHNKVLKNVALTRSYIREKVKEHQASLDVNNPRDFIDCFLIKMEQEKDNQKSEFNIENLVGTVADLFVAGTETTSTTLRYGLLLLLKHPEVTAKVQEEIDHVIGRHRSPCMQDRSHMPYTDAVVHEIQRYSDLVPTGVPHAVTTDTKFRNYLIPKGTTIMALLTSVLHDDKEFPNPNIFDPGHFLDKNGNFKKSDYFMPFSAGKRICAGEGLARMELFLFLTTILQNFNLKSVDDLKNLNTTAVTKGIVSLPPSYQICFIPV
ERBB2, sequence (P04626 23-1255): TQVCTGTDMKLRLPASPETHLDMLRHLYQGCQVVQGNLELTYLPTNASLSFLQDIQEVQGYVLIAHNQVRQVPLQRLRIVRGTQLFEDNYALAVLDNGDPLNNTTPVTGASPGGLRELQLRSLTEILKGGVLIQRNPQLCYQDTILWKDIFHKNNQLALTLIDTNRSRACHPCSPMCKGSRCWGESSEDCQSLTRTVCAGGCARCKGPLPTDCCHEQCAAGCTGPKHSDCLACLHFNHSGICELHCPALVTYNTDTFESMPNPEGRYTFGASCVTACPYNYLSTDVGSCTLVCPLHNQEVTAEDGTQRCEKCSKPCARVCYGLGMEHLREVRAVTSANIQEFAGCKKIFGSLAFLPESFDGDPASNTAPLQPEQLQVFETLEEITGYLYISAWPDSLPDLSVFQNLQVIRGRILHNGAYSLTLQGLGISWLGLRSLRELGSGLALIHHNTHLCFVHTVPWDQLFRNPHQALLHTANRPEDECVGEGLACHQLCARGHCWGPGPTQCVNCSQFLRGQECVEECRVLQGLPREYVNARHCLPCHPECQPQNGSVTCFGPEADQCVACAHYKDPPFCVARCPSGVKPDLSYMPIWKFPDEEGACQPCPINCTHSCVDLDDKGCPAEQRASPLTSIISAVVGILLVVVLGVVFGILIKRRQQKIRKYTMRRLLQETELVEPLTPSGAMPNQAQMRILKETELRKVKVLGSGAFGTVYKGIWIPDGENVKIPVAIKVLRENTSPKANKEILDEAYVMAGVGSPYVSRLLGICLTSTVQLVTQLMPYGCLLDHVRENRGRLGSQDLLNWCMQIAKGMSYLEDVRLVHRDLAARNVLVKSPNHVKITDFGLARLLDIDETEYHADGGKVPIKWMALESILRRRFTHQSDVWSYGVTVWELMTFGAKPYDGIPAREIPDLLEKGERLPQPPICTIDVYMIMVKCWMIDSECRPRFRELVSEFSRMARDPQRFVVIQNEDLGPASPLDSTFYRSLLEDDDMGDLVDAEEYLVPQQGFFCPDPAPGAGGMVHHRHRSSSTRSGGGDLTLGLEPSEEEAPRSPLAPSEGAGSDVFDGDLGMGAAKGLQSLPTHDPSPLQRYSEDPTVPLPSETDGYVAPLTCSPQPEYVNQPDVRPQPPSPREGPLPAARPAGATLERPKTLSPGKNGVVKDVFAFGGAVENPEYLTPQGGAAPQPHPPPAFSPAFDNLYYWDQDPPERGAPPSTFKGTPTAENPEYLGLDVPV

As usually defined, the kinact/KI is the maximal inactivation rate divided by the concentration that gives half of it. Usually kinact stands for the rate constant of inactivation at saturating inhibitor. The term Ki denotes the dissociation constant of the complex between target and ligand, obtained from inhibition or displacement. Read a high Ki as a looser hold on the target. Usually Kd stands for the concentration at which binding is half-saturated. Low readings indicate higher affinity, high ones lower affinity. In the case of `CC#CC(=O)NCCCC(=O)c1nc(-c2ccc(C(=O)Nc3ccccn3)cc2)c2c(N)nccn12` [Formula (I), 4-(8-amino-3-(4-(but-2-ynamido)butanoyl)imidazo[1,5-a]pyrazin-1-yl)-N-(pyridin-2-yl)benzamide], in data set [1], the CYP3A4/5 inhibition entry was “does not inhibit”. Besides, the second-order inactivation constant (kinact/KI) in data set [2] was determined as 16500 M⁻¹ s⁻¹. Moreover, in data set [2] (derived from IC50 values over time (Krippendorff method)), the kinact was determined as 0.0031 ± 0.0003 s⁻¹. Also, in data set [2] (derived from IC50 values over time (Krippendorff method), tracer Km=102 nM), the inhibition constant Ki worked out at 188 ± 9 nM. Also, the CYP2B6 inhibition result in data set [3] is “does not inhibit”. This compound also gave an equilibrium dissociation constant (Kd) in data set [4] of 120 nM. The CYP2C8 inhibition result in data set [5] is “weak inhibitor”.
